Test results published in US20260176320A1, “MODULATORS OF G-PROTEIN COUPLED RECEPTORS” (priority 2018, published 2026).
Where two headings read alike, the source gives them in different places.

Experiments:
GLP-1R [1] = molecular target: T1, GLP-1R (Homo sapiens, UniProt P43220); assay: HitHunter cAMP assay (GLP-1R); type: cell-based; details: cAMP; for Emax: read-out: (Emax) GLP-1R
In short: (§1)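 Cells were resuspended in HBSS plus HEPES, IBMX (625 μM) and BSA, then dispensed with antibody at 10,000 per well. Agonists followed as 22-point twofold series, 30 min at room temperature. Antibody reagent and detection steps ran 1 h and overnight in the dark before luminescence.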

GIP-R = molecular target: T2, GIP-R (Homo sapiens, UniProt P48546); assay: HitHunter cAMP assay (GIP-R); type: cell-based; details: cAMP; for Emax: read-out: (Emax) GIP-R
T2 sequence (P48546 22-466): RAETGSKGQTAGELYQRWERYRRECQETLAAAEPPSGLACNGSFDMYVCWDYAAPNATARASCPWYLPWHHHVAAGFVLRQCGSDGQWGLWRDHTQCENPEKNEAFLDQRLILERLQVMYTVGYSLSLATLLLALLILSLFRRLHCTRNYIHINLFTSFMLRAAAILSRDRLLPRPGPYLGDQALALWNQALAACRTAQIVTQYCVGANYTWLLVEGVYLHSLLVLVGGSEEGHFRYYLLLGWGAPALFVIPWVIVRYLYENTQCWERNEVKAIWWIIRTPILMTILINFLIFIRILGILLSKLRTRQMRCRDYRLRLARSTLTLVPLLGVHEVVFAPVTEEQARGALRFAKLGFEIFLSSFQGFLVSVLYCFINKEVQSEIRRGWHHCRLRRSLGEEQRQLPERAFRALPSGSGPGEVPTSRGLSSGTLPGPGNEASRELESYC
In short: as §1

mice = assay: Glucose tolerance test (GTT); type: in vivo, mouse; details: 24 h GTT, s.c., percent of vehicle
In short: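 Compounds diluted in PBS from 1 mM DMSO stocks and given subcutaneously 15 min (5-6 h fast), 4 h (16 h overnight fast), 16 h or 24 h before intraperitoneal glucose (2 g/kg). Tail blood glucose read at 10–120 min post-glucose, at least 6 mice per time-point. Glucose AUC over time determined.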

GLP-1R [2] = molecular target: T1, GLP-1R; assay: PathHunter β-arrestin assay; type: cell-based
In short: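 Agonist concentration–response (22 points, 2-fold steps, duplicates) was run on cells plated the previous day in BSA-supplemented (0.2%) medium. Stimulation lasted 90 min at 37 °C, followed by a 3 h dark incubation with detection reagent at room temperature and a luminescence read.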

[3] = Table 3, read-out: EC50 GLP-1R/nM
[4] = Table 3A, read-out: EC50 GLP-1R/nM
[5] = Table 3, read-out: EC50 GIP-R/nM
[6] = Table 3A, read-out: EC50 GIP-R/nM
[7] = PathHunter β-arrestin assay, read-out: β-arrestin activity EC50

T1 sequence (P43220 24-463): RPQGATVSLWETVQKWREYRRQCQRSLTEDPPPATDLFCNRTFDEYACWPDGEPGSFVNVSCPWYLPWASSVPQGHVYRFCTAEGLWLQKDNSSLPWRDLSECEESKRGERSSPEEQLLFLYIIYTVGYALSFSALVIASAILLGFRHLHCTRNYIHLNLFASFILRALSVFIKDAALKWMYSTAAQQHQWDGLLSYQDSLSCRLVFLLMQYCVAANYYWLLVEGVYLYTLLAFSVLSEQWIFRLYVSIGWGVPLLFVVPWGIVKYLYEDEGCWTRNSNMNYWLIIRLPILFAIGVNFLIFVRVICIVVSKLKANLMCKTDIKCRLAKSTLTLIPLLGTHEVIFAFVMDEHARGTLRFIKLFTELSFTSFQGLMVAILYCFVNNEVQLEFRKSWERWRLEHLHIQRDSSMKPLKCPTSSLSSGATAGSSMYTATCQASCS

| Structure (SMILES) | EC50 (GLP-1R [1]; EC50 GLP-1R/nM, Table 3) [nM] | EC50 (GLP-1R [1]; EC50 GLP-1R/nM, Table 3A) [nM] | Emax (GLP-1R [1]; Table 3) [%] | Emax (GLP-1R [1]; Table 3A) [%] | EC50 (GIP-R; EC50 GIP-R/nM, Table 3) [nM] | EC50 (GIP-R; EC50 GIP-R/nM, Table 3A) [nM] | Emax (GIP-R; Table 3) [%] | Emax (GIP-R; Table 3A) [%] | AUC score (mice; dose range 5.1-15 nmol/kg) | EC50 (GLP-1R [2]) [nM] | AUC score (mice; dose range 2-5 nmol/kg) | EC50 (GLP-1R [1]; [3]) [nM] | EC50 (GLP-1R [1]; [4]) [nM] | EC50 (GIP-R; [5]) [nM] | EC50 (GIP-R; [6]) [nM] | EC50 (GLP-1R [2]; [7]) [nM] | Emax at 1 µM (GIP-R; read-out: (Emax) GIP-R at 1 μM, Table 3, at 1 μM) [%] |
| --- | --- | --- | --- | --- | --- | --- | --- | --- | --- | --- | --- | --- | --- | --- | --- | --- | --- |
| CCCCCCCCCCCCCCCC(=O)N[C@@H](CCC(=O)NCCCC[C@H](NC(=O)[C@H](CO)NC(=O)[C@@H]1CCCN1C(=O)[C@@H]1CCCN1C(=O)[C@@H]1CCCN1C(=O)[C@H](C)NC(=O)CNC(=O)[C@H](CO)NC(=O)[C@H](CO)NC(=O)[C@@H]1CCCN1C(=O)CNC(=O)CNC(=O)[C@H](C)NC(=O)[C@H](CC(C)C)NC(=O)[C@H](CC(C)C)NC(=O)[C@H](Cc1c[nH]c2ccccc12)NC(=O)[C@H](CC(N)=O)NC(=O)[C@@H](NC(=O)[C@H](Cc1ccccc1)NC(=O)[C@H](CCC(=O)O)NC(=O)C(C)(C)NC(=O)[C@H](C)NC(=O)[C@H](C)NC(=O)[C@H](CCC(N)=O)NC(=O)[C@H](CCCCN)NC(=O)[C@H](CC(=O)O)NC(=O)[C@H](CC(C)C)NC(=O)[C@H](Cc1ccc(O)cc1)NC(=O)[C@@H](NC(=O)[C@H](CO)NC(=O)[C@H](Cc1ccc(O)cc1)NC(=O)[C@H](CC(=O)O)NC(=O)[C@H](CO)NC(=O)[C@@H](NC(=O)[C@H](Cc1ccccc1)NC(=O)[C@@H](NC(=O)CNC(=O)[C@H](CCC(=O)O)NC(=O)CSCC(=O)NCCN1C(=O)C(C)=C(C)C1=O)[C@@H](C)O)[C@@H](C)O)[C@@H](C)CC)C(C)C)C(N)=O)C(=O)O [Compound 77] | 0.1 to 1 | 0.1 to 1 | 90 | 90 | 0.1 to 1 | 0.1 to 1 | 82 | 82 | 2 (AUC score 2 = 26-50%) | > 1000 |  |  |  |  |  |  |  |
| CCCCCCCCCCCCCCCC(=O)N[C@@H](CCC(=O)NCCCC[C@H](NC(=O)[C@H](CO)NC(=O)[C@@H]1CCCN1C(=O)[C@@H]1CCCN1C(=O)[C@@H]1CCCN1C(=O)[C@H](C)NC(=O)CNC(=O)[C@H](CO)NC(=O)[C@H](CO)NC(=O)[C@@H]1CCCN1C(=O)CNC(=O)CNC(=O)[C@H](C)NC(=O)[C@H](CC(C)C)NC(=O)[C@H](CC(C)C)NC(=O)[C@H](Cc1c[nH]c2ccccc12)NC(=O)[C@H](CC(N)=O)NC(=O)[C@@H](NC(=O)[C@H](Cc1ccccc1)NC(=O)[C@H](CCC(=O)O)NC(=O)C(C)(C)NC(=O)[C@H](C)NC(=O)[C@H](C)NC(=O)[C@H](CCC(N)=O)NC(=O)[C@H](CCCCN)NC(=O)[C@H](CC(=O)O)NC(=O)[C@H](CC(C)C)NC(=O)[C@H](Cc1ccc(O)cc1)NC(=O)[C@@H](NC(=O)[C@H](CO)NC(=O)[C@H](Cc1ccc(O)cc1)NC(=O)[C@H](CC(=O)O)NC(=O)[C@H](CO)NC(=O)[C@@H](NC(=O)[C@H](Cc1ccccc1)NC(=O)[C@@H](NC(=O)CNC(=O)[C@H](CCC(=O)O)NC(=O)CSCC(=O)NCCN1C(=O)C[C@@H](O)C1=O)[C@@H](C)O)[C@@H](C)O)[C@@H](C)CC)C(C)C)C(N)=O)C(=O)O [Compound 79] | 0.1 to 1 | 0.1 to 1 | 102 | 102 | 0.1 to 1 | 0.1 to 1 | 77 | 77 | 2 (AUC score 2 = 26-50%) | > 1000 |  |  |  |  |  |  |  |
| CCCCCCCCCCCCCCCC(=O)N[C@@H](CCC(=O)NCCCC[C@H](NC(=O)[C@H](CO)NC(=O)[C@@H]1CCCN1C(=O)[C@@H]1CCCN1C(=O)[C@@H]1CCCN1C(=O)[C@H](C)NC(=O)CNC(=O)[C@H](CO)NC(=O)[C@H](CO)NC(=O)[C@@H]1CCCN1C(=O)CNC(=O)CNC(=O)[C@H](C)NC(=O)[C@H](CC(C)C)NC(=O)[C@H](CC(C)C)NC(=O)[C@H](Cc1c[nH]c2ccccc12)NC(=O)[C@H](CC(N)=O)NC(=O)[C@@H](NC(=O)[C@H](Cc1ccccc1)NC(=O)[C@H](CCC(=O)O)NC(=O)C(C)(C)NC(=O)[C@H](C)NC(=O)[C@H](C)NC(=O)[C@H](CCC(N)=O)NC(=O)[C@H](CCCCN)NC(=O)[C@H](CC(=O)O)NC(=O)[C@H](CC(C)C)NC(=O)[C@H](Cc1ccc(O)cc1)NC(=O)[C@@H](NC(=O)[C@H](CO)NC(=O)[C@H](Cc1ccc(O)cc1)NC(=O)[C@H](CC(=O)O)NC(=O)[C@H](CO)NC(=O)[C@@H](NC(=O)[C@H](Cc1ccccc1)NC(=O)[C@@H](NC(=O)CNC(=O)[C@H](CCC(=O)O)NC(=O)CSCC(=O)NCCN1C(=O)CCC(C)(C)C1=O)[C@@H](C)O)[C@@H](C)O)[C@@H](C)CC)C(C)C)C(N)=O)C(=O)O [Compound 81] | 0.1 to 1 | 0.1 to 1 | 96 | 96 | 0.1 to 1 | 0.1 to 1 | 89 | 89 |  | > 1000 | 3 (AUC score 3 = 51-75%) |  |  |  |  |  |  |
| CCCCCCCCCCCCCCCC(=O)N[C@@H](CCC(=O)NCCCC[C@H](NC(=O)[C@H](CO)NC(=O)[C@@H]1CCCN1C(=O)[C@@H]1CCCN1C(=O)[C@@H]1CCCN1C(=O)[C@H](C)NC(=O)CNC(=O)[C@H](CO)NC(=O)[C@H](CO)NC(=O)[C@@H]1CCCN1C(=O)CNC(=O)CNC(=O)[C@H](C)NC(=O)[C@H](CC(C)C)NC(=O)[C@H](CC(C)C)NC(=O)[C@H](Cc1c[nH]c2ccccc12)NC(=O)[C@H](CC(N)=O)NC(=O)[C@@H](NC(=O)[C@H](Cc1ccccc1)NC(=O)[C@H](CCC(=O)O)NC(=O)C(C)(C)NC(=O)[C@H](C)NC(=O)[C@H](C)NC(=O)[C@H](CCC(N)=O)NC(=O)[C@H](CCCCN)NC(=O)[C@H](CC(=O)O)NC(=O)[C@H](CC(C)C)NC(=O)[C@H](Cc1ccc(O)cc1)NC(=O)[C@@H](NC(=O)[C@H](CO)NC(=O)[C@H](Cc1ccc(O)cc1)NC(=O)[C@H](CC(=O)O)NC(=O)[C@H](CO)NC(=O)[C@@H](NC(=O)[C@H](Cc1ccccc1)NC(=O)[C@@H](NC(=O)CNC(=O)[C@H](CCC(=O)O)NC(=O)CSCC(=O)NCCN1CCCC1=O)[C@@H](C)O)[C@@H](C)O)[C@@H](C)CC)C(C)C)C(N)=O)C(=O)O [Compound 83] |  |  | 106 | 106 |  |  | 73 | 73 |  |  | 2 (AUC score 2 = 26-50%) | 0.1 to 1 | 0.1 to 1 | 1 to 10 | 1 to 10 | > 1000 |  |
| CCCCCCCCCCCCCCCC(=O)N[C@@H](CCC(=O)NCCCC[C@H](NC(=O)[C@H](CO)NC(=O)[C@@H]1CCCN1C(=O)[C@@H]1CCCN1C(=O)[C@@H]1CCCN1C(=O)[C@H](C)NC(=O)CNC(=O)[C@H](CO)NC(=O)[C@H](CO)NC(=O)[C@@H]1CCCN1C(=O)CNC(=O)CNC(=O)[C@H](C)NC(=O)[C@H](CC(C)C)NC(=O)[C@H](CC(C)C)NC(=O)[C@H](Cc1c[nH]c2ccccc12)NC(=O)[C@H](CC(N)=O)NC(=O)[C@@H](NC(=O)[C@H](Cc1ccccc1)NC(=O)[C@H](CCC(=O)O)NC(=O)C(C)(C)NC(=O)[C@H](C)NC(=O)[C@H](C)NC(=O)[C@H](CCC(N)=O)NC(=O)[C@H](CCCCN)NC(=O)[C@H](CC(=O)O)NC(=O)[C@H](CC(C)C)NC(=O)[C@H](Cc1ccc(O)cc1)NC(=O)[C@@H](NC(=O)[C@H](CO)NC(=O)[C@H](Cc1ccc(O)cc1)NC(=O)[C@H](CC(=O)O)NC(=O)[C@H](CO)NC(=O)[C@@H](NC(=O)[C@H](Cc1ccccc1)NC(=O)[C@@H](NC(=O)CNC(=O)[C@H](CCC(=O)O)NC(=O)CSCC(=O)N1CCNC1=O)[C@@H](C)O)[C@@H](C)O)[C@@H](C)CC)C(C)C)C(N)=O)C(=O)O [Compound 98] |  |  | 96 | 96 |  |  |  |  | 2 (AUC score 2 = 26-50%) |  |  | 0.1 to 1 | 0.1 to 1 | > 1000 | > 1000 | > 1000 | < 5 |
